Assay results taken from patent publication US20240124460A1, “METHODS AND COMPOSITIONS FOR TARGETED PROTEIN DEGRADATION” (Ranok Therapeutics (Hangzhou) Co. Ltd., priority 2020, published 2024).

Legend:
[1] = target: T1, HSP90α protein (Homo sapiens, UniProt P07900); experiment: HSP90α-binding FP (FITC) assay; conditions: FP competition with FITC-geldanamycin
T1 construct: purchased BPS Bioscience #50298
Method: Binding of test compounds to HSP90α protein was measured by fluorescent polarization (FP) using the HSP90α (N-terminal) Assay Kit (BPS Bioscience, #50298), following the manufacturer's instructions, except as noted. Fluorescently labeled HSP90-binding compounds, either the provided FITC-geldanamycin (5 nM final concentration) or RNK04010, a triazolone-based HSP90 binding small molecule labeled with BODIPY through a piperazine-phenyl linker (5 nM final concentration) were employed. A 2.5-fold serial dilution of each test compound ranging from 20 μM to 5.2 nM was assayed for binding to HSP90α. After the final step of adding HSP90α protein to each assay well, plates were mixed by brief shaking, incubated at 25° C. for 120 min for FITC-geldanamycin or 300 min for RNK04010, and fluorescence was measured using a PerkinElmer EnVision Plate Reader.

[2] = system: U-87 MG human glioblastoma; experiment: U87 MG CCK-8 proliferation assay; type: cell-based; conditions: Homo sapiens, U-87 MG, 72 h, U-87 MG cells, read-out: U87MG CCK-8
In short: (§1)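 3-fold dilution series, 20 μM–1.02 nM; ATCC culture conditions; CCK-8 absorbance read-out; % inhibition = 100 − (D−B)/(S−B)×100, S = DMSO cells, B = medium + DMSO, no cells.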

[3] = system: MV-4-11 human acute myeloid leukemia; experiment: MV-4-11 CCK-8 proliferation assay; type: cell-based; conditions: Homo sapiens, MV4-11; MV-4-11 cells, 72 hr
In short: as §1

[4] = target: MAPK7 (Homo sapiens, UniProt Q13164); experiment: MAPK7 Western blot protein degradation assay in U-87 MG cells; type: cell-based; set-up: U-87 MG human glioblastoma cells, which express MAPK7; endogenous in cells; host or cells: U-87 MG; conditions: 48 hr
Method: U-87 MG human glioblastoma cells were seeded in 6- or 12-well tissue culture plates, and after 1 hr, test compounds were added at various concentrations and incubated at 37° C./5% CO2 for 48 hr. Cells were then washed with cold PBS, aspirated and cold RIPA buffer containing a protease/phosphatase inhibitor cocktail was added to lyse cells. After centrifugation, the total protein concentrations of cell lysates were determined using the BCA protein assay. Samples were normalized for equivalent protein concentrations, 5×SDS-PAGE loading buffer added and denatured at 100° C. for 10 min. 20 μl of each sample/well was loaded on a SDS-PAGE gel and electrophoresed for 20 min at 80 V, then 120 V for 1.5 hr. Gels were then electroblotted to nitrocellulose membranes using a wet-transfer method at 250 mA for 2.5 hr. Membranes were incubated with blocking buffer for 1 hr and washed 3 times with TBST for 5 min. Membranes were then incubated with anti-MAPK7 (anti-ERK5; Cell Signaling Technology, #12950) and anti-3-Actin (Cell Signaling Technology, #3700) monoclonal antibodies diluted in blocking buffer at 4° C. overnight per the manufacturer's recommendations. After washing 3 times, blots were incubated with appropriately labeled secondary antibodies for 1 hr at room temperature and washed again. Fluorescence imaging and quantitation was performed using a LI-COR Odyssey. Results was analyzed using GraphPad Prism 7 software.

[5] = target: T1, HSP90α protein; experiment: HSP90α-binding FP (BODIPY) assay; conditions: FP competition with BODIPY-labeled RNK04010
In short: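 Fluorescence polarization measured competition with N-terminal human HSP90α, using either FITC-geldanamycin or BODIPY-labelled triazolone RNK04010 as tracer (5 nM final each). Compounds were tested in 2.5-fold dilutions from 20 μM to 5.2 nM, with incubation at 25 °C for 120 min (FITC) or 300 min (BODIPY).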

[6] = system: ERBB2; experiment: ERBB2 (HER2) flow cytometry protein degradation assay in BT-474 cells; type: cell-based, human; conditions: DC50, BT-474 cells, 24 hr
Method: To analyze total ERBB2 expression by flow cytometry, cells were detached with trypsin, washed, counted and treated with 10 μl/10^6 cells PE-conjugated, anti-ERBB2 monoclonal antibody (R&D Systems, #FAB1129P) for 30 min at 25° C. in dark. Cells were then washed, resuspended in 200 μl 1% paraformaldehyde and analyzed by flow cytometry.
% Inhibition=100−(D−B)/(S−B)*100%. • S: Fluorescence intensity of cells with antibody • D: Fluorescence intensity of compound-treated cells with antibody • B: Fluorescence intensity of cells without antibody

MAPK7, sequence (Q13164 whole entry): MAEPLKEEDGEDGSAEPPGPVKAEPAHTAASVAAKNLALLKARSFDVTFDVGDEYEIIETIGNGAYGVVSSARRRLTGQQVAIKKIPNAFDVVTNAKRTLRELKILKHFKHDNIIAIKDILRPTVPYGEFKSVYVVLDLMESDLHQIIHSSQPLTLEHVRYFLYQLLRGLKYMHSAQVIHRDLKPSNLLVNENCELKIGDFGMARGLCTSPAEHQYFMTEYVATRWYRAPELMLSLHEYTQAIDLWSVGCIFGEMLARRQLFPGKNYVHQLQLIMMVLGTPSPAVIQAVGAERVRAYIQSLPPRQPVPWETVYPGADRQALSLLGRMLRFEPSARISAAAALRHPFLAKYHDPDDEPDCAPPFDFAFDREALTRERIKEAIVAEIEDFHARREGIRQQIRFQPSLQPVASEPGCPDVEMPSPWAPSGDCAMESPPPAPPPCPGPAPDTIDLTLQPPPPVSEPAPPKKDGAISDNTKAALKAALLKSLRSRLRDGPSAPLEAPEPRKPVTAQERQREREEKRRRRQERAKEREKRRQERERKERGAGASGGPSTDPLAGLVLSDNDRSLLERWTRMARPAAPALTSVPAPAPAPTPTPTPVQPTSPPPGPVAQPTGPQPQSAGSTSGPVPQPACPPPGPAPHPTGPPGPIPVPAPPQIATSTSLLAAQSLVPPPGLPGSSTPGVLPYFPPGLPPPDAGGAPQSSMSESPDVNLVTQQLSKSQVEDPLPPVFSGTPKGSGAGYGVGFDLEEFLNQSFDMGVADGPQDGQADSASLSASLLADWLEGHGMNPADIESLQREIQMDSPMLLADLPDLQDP

| IC50 [1] [nM] | EC50 [2] [nM] | EC50 [3] [nM] | MAPK7 degradation (30 nM) ([4]; 30 nM) | MAPK7 degradation (100 nM) ([4]; 100 nM) | MAPK7 degradation (300 nM) ([4]; 300 nM) | MAPK7 degradation (1000 nM) ([4]; 1000 nM) | IC50 [5] [nM] | Structure (SMILES) | ERBB2 degradation [6] |
| --- | --- | --- | --- | --- | --- | --- | --- | --- | --- |
| 100 to 1000 | > 1000 | 100 to 1000 |  |  |  |  |  | CCOc1cc(N2CCC(C(=O)N3CCC(CN4CCC(COc5ccc(Nc6cc(-n7nc(C(F)(F)F)c8c7CC(C)(C)CC8=O)ccc6C(N)=O)cc5)CC4)CC3)CC2)ccc1Nc1ncc2c(n1)N(C)c1ccccc1C(=O)N2C [Compound 129, 4-(6,6-dimethyl-4-oxo-3-(trifluoromethyl)-4,5,6,7-tetrahydro-1H-indazol-1-yl)-2-((4-((1-((1-(1-(4-((5,11-dimethyl-6-oxo-6,11-dihydro-5H-benzo[e]pyrimido[5,4-b][1,4]diazepin-2-yl)amino)-3-ethoxyphenyl)piperidine-4-carbonyl)piperidin-4-yl)methyl)piperidin-4-yl)methoxy)phenyl)amino)benzamide] |  |
| > 1000 | > 1000 | > 1000 |  |  |  |  |  | CCOc1cc(N2CCC(C(=O)N3CCC(N4CCN(C(=O)O[C@H]5CC[C@H](Nc6cc(-n7nc(C(F)(F)F)c8c7CC(C)(C)CC8=O)ccc6C(N)=O)CC5)CC4)CC3)CC2)ccc1Nc1ncc2c(n1)N(C)c1ccccc1C(=O)N2C [Compound 125, (1R,4R)-4-((2-carbamoyl-5-(6,6-dimethyl-4-oxo-3-(trifluoromethyl)-4,5,6,7-tetrahydro-1H-indazol-1-yl)phenyl)amino)cyclohexyl 4-(1-(1-(4-((5,11-dimethyl-6-oxo-6,11-dihydro-5H-benzo[e]pyrimido[5,4-b][1,4]diazepin-2-yl)amino)-3-ethoxyphenyl)piperidine-4-carbonyl)piperidin-4-yl)piperazine-1-carboxylate] |  |
| 100 to 1000 | 100 to 1000 | < 100 |  |  |  |  |  | CCOc1cc(N2CCC(C(=O)N3CCC(CN4CCN(C(=O)c5ccc(-n6c(O)nnc6-c6cc(C(C)C)c(O)cc6O)cc5)CC4)CC3)CC2)ccc1Nc1ncc2c(n1)N(C)c1ccccc1C(=O)N2C [Compound 126, 2-((4-(4-(4-((4-(4-(3-(2,4-dihydroxy-5-isopropylphenyl)-5-hydroxy-4H-1,2,4-triazol-4-yl)benzoyl)piperazin-1-yl)methyl)piperidine-1-carbonyl)piperidin-1-yl)-2-ethoxyphenyl)amino)-5,11-dimethyl-5,11-dihydro-6H-benzo[e]pyrimido[5,4-b][1,4]diazepin-6-one] |  |
| 100 to 1000 | > 1000 | 100 to 1000 |  |  |  |  |  | CCOc1cc(N2CCC(C(=O)NCC3CCN(C(=O)C4CCN(Cc5ccc(-n6c(O)nnc6-c6cc(CC)c(O)cc6O)cc5)CC4)C3)CC2)ccc1Nc1ncc2c(n1)N(C)c1ccccc1C(=O)N2C (centres unmarked) [Compound 012, 1-(4-((5,11-dimethyl-6-oxo-6,11-dihydro-5H-benzo[e]pyrimido[5,4-b][1,4]diazepin-2-yl)amino)-3-ethoxyphenyl)-N-((1-(1-(4-(3-(5-ethyl-2,4-dihydroxyphenyl)-5-hydroxy-4H-1,2,4-triazol-4-yl)benzyl)piperidine-4-carbonyl)pyrrolidin-3-yl)methyl)piperidine-4-carboxamide] |  |
| 100 to 1000 | 100 to 1000 | < 100 |  |  |  |  |  | CCOc1cc(N2CCC(C(=O)NCCOCCOCCOc3ccc(-n4c(O)nnc4-c4cc(C(C)C)c(O)cc4O)cc3)CC2)ccc1Nc1ncc2c(n1)N(C)c1ccccc1C(=O)N2C [Compound 016, N-(2-(2-(2-(4-(3-(2,4-dihydroxy-5-isopropylphenyl)-5-hydroxy-4H-1,2,4-triazol-4-yl)phenoxy)ethoxy)ethoxy)ethyl)-1-(4-((5,11-dimethyl-6-oxo-6,11-dihydro-5H-benzo[e]pyrimido[5,4-b][1,4]diazepin-2-yl)amino)-3-ethoxyphenyl)piperidine-4-carboxamide] |  |
| > 1000 | > 1000 | 100 to 1000 |  |  |  |  |  | CCOc1cc(N2CCC(C(=O)NCCOCCOCCOCCOc3ccc(Nc4cc(-n5nc(C(F)(F)F)c6c5CC(C)(C)CC6=O)ccc4C(N)=O)cc3)CC2)ccc1Nc1ncc2c(n1)N(C)c1ccccc1C(=O)N2C [Compound 132, N-(2-(2-(2-(2-(4-((2-carbamoyl-5-(6,6-dimethyl-4-oxo-3-(trifluoromethyl)-4,5,6,7-tetrahydro-1H-indazol-1-yl)phenyl)amino)phenoxy)ethoxy)ethoxy)ethoxy)ethyl)-1-(4-((5,11-dimethyl-6-oxo-6,11-dihydro-5H-benzo[e]pyrimido[5,4-b][1,4]diazepin-2-yl)amino)-3-ethoxyphenyl)piperidine-4-carboxamide] |  |
| 100 to 1000 | 100 to 1000 | < 100 |  |  |  |  |  | CCOc1cc(N2CCC(C(=O)NCCOCCOc3ccc(-n4c(O)nnc4-c4cc(C(C)C)c(O)cc4O)cc3)CC2)ccc1Nc1ncc2c(n1)N(C)c1ccccc1C(=O)N2C [Compound 015, N-(2-(2-(4-(3-(2,4-dihydroxy-5-isopropylphenyl)-5-hydroxy-4H-1,2,4-triazol-4-yl)phenoxy)ethoxy)ethyl)-1-(4-((5,11-dimethyl-6-oxo-6,11-dihydro-5H-benzo[e]pyrimido[5,4-b][1,4]diazepin-2-yl)amino)-3-ethoxyphenyl)piperidine-4-carboxamide] |  |
| 100 to 1000 | 100 to 1000 | < 100 |  |  |  |  |  | CCOc1cc(N2CCC(C(=O)NCCc3ccc(-n4c(O)nnc4-c4cc(C(C)C)c(O)cc4O)cc3)CC2)ccc1Nc1ncc2c(n1)N(C)c1ccccc1C(=O)N2C [Compound 008, N-(4-(3-(2,4-dihydroxy-5-isopropylphenyl)-5-hydroxy-4H-1,2,4-triazol-4-yl)phenethyl)-1-(4-((5,11-dimethyl-6-oxo-6,11-dihydro-5H-benzo[e]pyrimido[5,4-b][1,4]diazepin-2-yl)amino)-3-ethoxyphenyl)piperidine-4-carboxamide] |  |
| 100 to 1000 | > 1000 | < 100 |  |  |  |  |  | CCOc1cc(N2CCC(C(=O)NCCOCCOCCOc3ccc(-n4c(O)nnc4-c4cc(CC)c(O)cc4O)cc3)CC2)ccc1Nc1ncc2c(n1)N(C)c1ccccc1C(=O)N2C [Compound 017, 1-(4-((5,11-dimethyl-6-oxo-6,11-dihydro-5H-benzo[e]pyrimido[5,4-b][1,4]diazepin-2-yl)amino)-3-ethoxyphenyl)-N-(2-(2-(2-(4-(3-(5-ethyl-2,4-dihydroxyphenyl)-5-hydroxy-4H-1,2,4-triazol-4-yl)phenoxy)ethoxy)ethoxy)ethyl)piperidine-4-carboxamide] |  |
|  | 100 to 1000 | < 100 | C (< 33% degradation) | C (< 33% degradation) | B (33-66% degradation) | A (>66% degradation) | 100 to 1000 | CCOc1cc(N2CCC(C(=O)N3CCC(CN4CCN(Cc5ccc(-n6c(C(=O)NCC(F)(F)F)nnc6-c6cc(CC)c(O)cc6O)cc5)CC4)CC3)CC2)ccc1Nc1ncc2c(n1)N(C)c1ccccc1C(=O)N2C [Compound 022, 4-(4-((4-((1-(1-(4-((5,11-dimethyl-6-oxo-6,11-dihydro-5H-benzo[e]pyrimido[5,4-b][1,4]diazepin-2-yl)amino)-3-ethoxyphenyl)piperidine-4-carbonyl)piperidin-4-yl)methyl)piperazin-1-yl)methyl)phenyl)-5-(5-ethyl-2,4-dihydroxyphenyl)-N-(2,2,2-trifluoroethyl)-4H-1,2,4-triazole-3-carboxamide] | B (DC50 = 100-1000 nM) |
